Laboratory results taken from patent US20210015134A1, “CONSUMABLES” (Givaudan S.A., priority 2006, published 2021).

How the values were obtained:
[1] = test system: sweet sensitive panelists; assay: Forced choice test of sweetness enhancers with sweetness rating (Example 2); format: in vivo; conditions: scale 0-10
Procedure: A forced choice test of sweetness enhancers in water, 2% sucrose and 7% sucrose
All sweetness enhancer samples were evaluated at the same concentration, which was selected close to the threshold of each sweetness enhancer, in 0% sucrose (water), 2% sucrose, and 7% sucrose.
The test samples were evaluated by a sensory panel of 10 sweet sensitive panelists. Samples were presented in 3 replicates to each panelist to give n=30 evaluations for each panel. The sensory evaluation was conducted using a forced choice method. Samples were presented blind, unidentifiable by panelists. Three runs at different sucrose concentrations were performed (0% sucrose (water/negative control), 2% sucrose, 7% sucrose). In each run, the sweetness enhancer sample was compared by panelists to a corresponding sample without sweetness enhancer at the same sucrose concentration. Panelists were instructed that they had to choose one of the samples as sweeter. The data was analyzed using beta-binomial analysis. […]
Alternatively, 0% (water), 0.5% and/or 1% and/or 1.5% sucrose were used for samples/corresponding controls and evaluated accordingly.
As a further control, the sweetness enhancer in water was compared to 0.5% and/or 1% and/or 1.5% sucrose. The result determined the sweetness intensity of the sweetness enhancer compound as such, without the sweetness due to the enhancement of sucrose.

[2] = test system: sweet sensitive panelists; assay: Ranking test, near threshold sweetness isointensity of enhancer in water (Example 3b); format: in vivo
Procedure: The sensory evaluation was conducted using a ranking method. Samples at ambient temperature were randomly presented in 15 ml blind aliquots (unidentifiable by panelists). […] After tasting each sample, the mouth was rinsed thoroughly with water at ambient temperature prior to tasting the next sample. […] They were asked to rank the samples from low to high with respect to perceived sweet taste.

[3] = test system: sucrose sweetness; conditions: at its sweetness detection threshold; Kroeze et al., Chem. Senses 2000; cited from earlier work

Row | SMILES | rating 1% sucrose ([1]; rating 2 of Example 12B) | rating 1% sucrose ([1]; rating 2 of Example 12C) | isointensity to sucrose solution ([2]; 2 ppm in water) | NDHC sample sweetness ([2]; 2 ppm in water vs 0.5% sucrose) | NDHC sample sweetness ([2]; 2 ppm in water vs 1% sucrose) | enhancement of sucrose sweetness [3]
1 | OC[C@H]1O[C@@](CO)(O[C@H]2O[C@H](CO)[C@@H](O)[C@H](O)[C@H]2O)[C@@H](O)[C@@H]1O [sucrose, α-D-glucopyranosyl-(1→2)-β-D-fructofuranose] | 0.81 ± 0.08 | 0.72 ± 0.06 | – | – | – | –
2 | COc1ccc(CCC(=O)c2c(O)cc(O[C@@H]3O[C@H](CO)[C@@H](O)[C@H](O)[C@H]3O[C@@H]3O[C@@H](C)[C@H](O)[C@@H](O)[C@H]3O)cc2O)cc1O [NDHC, Neohesperidin dihydrochalcone] | – | – | 0.5 % sucrose | isosweet | less sweet | does not enhance sucrose sweetness
